Assay [1] addresses T1, 5-hydroxytryptamine receptor 1A (Rattus norvegicus, UniProt P19327).
T1 sequence (P19327 whole entry): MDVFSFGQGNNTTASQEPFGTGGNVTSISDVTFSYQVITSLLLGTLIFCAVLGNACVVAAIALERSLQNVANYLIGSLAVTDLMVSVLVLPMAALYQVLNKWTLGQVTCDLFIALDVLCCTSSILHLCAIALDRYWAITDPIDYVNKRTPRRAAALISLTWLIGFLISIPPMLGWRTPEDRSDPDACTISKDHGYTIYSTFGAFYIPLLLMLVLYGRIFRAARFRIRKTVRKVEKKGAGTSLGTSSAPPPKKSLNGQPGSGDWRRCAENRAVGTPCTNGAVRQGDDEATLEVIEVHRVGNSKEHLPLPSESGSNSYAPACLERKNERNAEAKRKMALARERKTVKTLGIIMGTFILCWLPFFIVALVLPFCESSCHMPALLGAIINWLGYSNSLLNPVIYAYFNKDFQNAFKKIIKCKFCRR
As to the kind of experiment: Binding affinity to 5-hydroxytryptamine 1A receptor (5-HT 1A receptor, serotonin receptor) from rat cortex using [3H]8-OH-DPAT as radioligand. Particulars: read-out: Ki.

Assay [2] concerns Mus musculus. The experiment in a line: Effect on immobility time in the forced swimming test (FST) in mice at 0 mg/kg dose. It is filed as functional.
Assay [3] concerns Mus musculus. As to the kind of experiment: Effect on immobility time in the forced swimming test (FST) in mice at 0.1 mg/kg dose. It is filed as functional.
For assay [4], the system named is Mus musculus. The experiment in a line: Effect on immobility time in the forced swimming test (FST) in mice at 10 mg/kg dose. It counts as functional.
The subject of assay [5] is Mus musculus. The experiment in a line: Effect on immobility time in the forced swimming test (FST) in mice at mg/kg dose. It counts as functional.
The test system of assay [6] is Mus musculus. The experiment in a line: Antidepressant-like activity in the forced swimming test (FST) in mice at 0.1 mg/kg dose; Antidepressant like activity. It counts as functional.
The test system of assay [7] is Mus musculus. As to the kind of experiment: Antidepressant-like activity in the forced swimming test (FST) in mice at 1 mg/kg dose; Antidepressant like activity. It counts as functional.
Assay [8] has as its system Mus musculus. As to the kind of experiment: Antidepressant-like activity in the forced swimming test (FST) in mice at 10 mg/kg dose; Antidepressant like activity. It counts as functional.
The subject of assay [9] is Mus musculus. The experiment in a line: Time-dependent effect on 8-OH-DPAT-induced hypothermia (change in body temperature) after 15 min, in mice at 0.5 mg/kg dose. It is filed as functional.
The subject of assay [10] is Mus musculus. The experiment in a line: Time-dependent effect on 8-OH-DPAT-induced hypothermia (change in body temperature) after 15 min, in mice at 5 mg/kg dose. It counts as functional.
Assay [11] concerns Mus musculus. The experiment in a line: Time-dependent effect on 8-OH-DPAT-induced hypothermia (change in body temperature) after 30 min, in mice at 0.5 mg/kg dose. It is filed as functional.
Assay [12] has as its system Mus musculus. The experiment in a line: Time-dependent effect on 8-OH-DPAT-induced hypothermia (change in body temperature) after 30 min, in mice at 5 mg/kg dose. It is filed as functional.
Assay [13] has as its system Mus musculus. As to the kind of experiment: Time-dependent effect on 8-OH-DPAT-induced hypothermia (change in body temperature) after 60 min, in mice at 0.5 mg/kg dose. It is filed as functional.
Assay [14] deals with Mus musculus. As to the kind of experiment: Time-dependent effect on 8-OH-DPAT-induced hypothermia (change in body temperature) after 60 min, in mice at 5 mg/kg dose. It is filed as functional.
The target in assay [15] is Sodium-dependent serotonin transporter (Rattus norvegicus, UniProt P31652). As to the kind of experiment: Binding affinity towards Serotonin transporter from rat cortex measured using [3H]paroxetine. To be noted: read-out: Ki.
Chain of Sodium-dependent serotonin transporter (P31652 whole entry): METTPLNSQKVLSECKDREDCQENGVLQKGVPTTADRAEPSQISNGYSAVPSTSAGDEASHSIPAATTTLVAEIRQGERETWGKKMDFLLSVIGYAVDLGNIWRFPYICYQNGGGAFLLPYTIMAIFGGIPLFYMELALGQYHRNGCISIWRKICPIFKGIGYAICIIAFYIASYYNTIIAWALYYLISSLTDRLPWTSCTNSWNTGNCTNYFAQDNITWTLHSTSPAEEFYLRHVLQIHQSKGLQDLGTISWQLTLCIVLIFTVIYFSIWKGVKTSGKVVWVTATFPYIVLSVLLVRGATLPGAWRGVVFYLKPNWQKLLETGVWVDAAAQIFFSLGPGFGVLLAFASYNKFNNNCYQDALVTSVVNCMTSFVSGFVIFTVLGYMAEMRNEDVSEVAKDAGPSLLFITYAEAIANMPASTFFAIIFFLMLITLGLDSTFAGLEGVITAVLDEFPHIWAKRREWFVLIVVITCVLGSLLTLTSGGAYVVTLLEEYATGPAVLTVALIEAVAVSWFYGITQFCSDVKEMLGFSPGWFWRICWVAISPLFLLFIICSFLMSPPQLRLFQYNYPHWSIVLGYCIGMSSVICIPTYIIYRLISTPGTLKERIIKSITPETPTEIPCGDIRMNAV
The test system of assay [16] is Rattus norvegicus. As to the kind of experiment: Effect on helpless behavior in rats and the number of escape failures was determined in shuttle-box session-1 (SB-1) at 30 mg/kg dose. It is filed as functional.
In assay [17] the test system is Rattus norvegicus. As to the kind of experiment: Effect on helpless behavior in rats and the number of escape failures was determined in shuttle-box session-2 (SB-2) at 30 mg/kg dose. It counts as functional.
The subject of assay [18] is Rattus norvegicus. As to the kind of experiment: Effect on helpless behavior in rats and the number of escape failures was determined in shuttle-box session-3 (SB-3) at 30 mg/kg dose. It is filed as functional.

pKi: −log10 of the molar value. Bounds are passed on as bounds.

Broadly, the pKi is the negative decadic logarithm of the Ki, by convention in mol/L.

As to `COc1ccccc1N1CCN(CC/C(=N\O)c2csc3ccccc23)CC1`, the negative-log Ki (pKi) in assay [1] was 7.22; in assay [15] it was 7.02. Further, the Immobility time in the assay on Mus musculus [2] is 188.1 s; with Mus musculus [3], 181.1 s; in the assay on Mus musculus [4] it was below 102 s; with Mus musculus [5], 150.1 s. In addition, the results for the Activity in the assay with Mus musculus [6], with Mus musculus [7] and with Mus musculus [8] were 0%, 22% and 50%, respectively. The Temperature change with Mus musculus [9] was -2.16 °C; in the assay on Mus musculus [10], -2.77 °C; in the assay on Mus musculus [11] it was -2.18 °C; with Mus musculus [12], -2.99 °C; in the assay with Mus musculus [13], -1.7 °C; in the assay on Mus musculus [14], -1.31 °C.
In the case of `CNCCC(Oc1ccc(C(F)(F)F)cc1)c1ccccc1` (stereo not drawn) [FLUOXETINE], the results for the “No. of escape failures” value in the assay on Rattus norvegicus [16], with Rattus norvegicus [17] and with Rattus norvegicus [18] were 13, below 4 and below 3.2, respectively.

The values are drawn from ChEMBL document CHEMBL1134339, “New 1-aryl-3-(4-arylpiperazin-1-yl)propane derivatives, with dual action at 5-HT1A serotonin receptors and serotonin transporter, as a new class of antidepressants” (J Med Chem, 2001).
